Test results reported in patent US12485106B2, “Methods of treating fibrotic liver diseases or conditions with indeglitazar” (PLEIOGENIX INC., priority 2023, dated 2025).
“Also recorded” adds a separate entry of the source.

Experiments:
PPARα = target: T1, PPARα (Homo sapiens, UniProt Q07869); conditions: cited from earlier work
T1 sequence (Q07869 1-468): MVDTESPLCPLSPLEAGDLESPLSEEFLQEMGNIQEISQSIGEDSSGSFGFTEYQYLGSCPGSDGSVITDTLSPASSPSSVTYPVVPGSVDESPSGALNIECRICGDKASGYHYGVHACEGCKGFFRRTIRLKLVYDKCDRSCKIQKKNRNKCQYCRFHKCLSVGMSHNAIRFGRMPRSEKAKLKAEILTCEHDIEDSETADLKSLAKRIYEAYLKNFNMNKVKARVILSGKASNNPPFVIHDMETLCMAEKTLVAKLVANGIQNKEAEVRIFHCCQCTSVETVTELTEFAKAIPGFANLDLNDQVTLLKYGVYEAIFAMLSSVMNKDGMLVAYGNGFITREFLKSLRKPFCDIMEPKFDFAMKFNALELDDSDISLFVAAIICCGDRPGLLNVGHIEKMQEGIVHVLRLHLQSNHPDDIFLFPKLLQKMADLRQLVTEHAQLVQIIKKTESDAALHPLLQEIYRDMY

[1] = test system: mouse model of human alcoholic hepatitis; test: AH mouse model (chronic and binge ethanol feeding plus LPS), dose-response study; type: in vivo; conditions: for effect on body weight: 10, 30 and 50 mg/kg/day oral gavage, male and female mice
Description: Mouse model generation and treatment. The AH mouse model was generated as described in Shah et al. through chronic and binge ethanol feeding plus lipopolysaccharides (LPS) administration to provide a second hit to increase liver damage (Shah R et al., Oxid Med Cell Longev, (2018), 2018:9630175; Lamas-Paz A et al., World J Gastroenterol, (2018), 24:5063-75). This model is easy to implement and recapitulates the major features of human AH including marked ALT elevation, liver steatosis, and fibrosis (O'Beirne J., Dig Dis Sci., (2020), 65:920-1). A total of 60 mice, were used at a 50:50 male/female ratio to provide a comprehensive representation applicable in treating the general population. C57BL6 mice (6-8-week-old) were fed Lieber-DeCarli '82 rodent liquid diet (LDC) ad libitum for 5 days to acclimatize them to tube feeding. On day 6, mice were treated according to Table 1. Ethanol-fed groups were allowed free access to LDC diet containing 5% (vol/vol) ethanol for 11 days, and control groups were pair-fed with the LDC diet only. Indeglitazar was administered by oral gavage starting from day 6. On day 12, mice were given a single dose of 5 g/kg/bw of EtOH by oral gavage, and LPS (2 mg/kg/bw) by intraperitoneal injection (IP), pair-fed mice were fed isocaloric maltose dextrin and all mice were euthanized 6 h later.
Analysis and tests: Mice were treated for 11 days; body weights were measured before and during administration. Plasma was analyzed for ALT, AST, and GGT. A full necropsy was performed at the end-point together with liver histology to assess steatosis, and inflammatory infiltrates. Briefly, liver tissue was fixed in 10% neutral buffered formalin and paraffin-embedded, sectioned into […] thickness, and stained with hematoxylin-eosin (H&E) and Oil-Red O staining for evaluation of histopathological changes. Stained liver slices were analyzed under a bright-field microscope using the histological scoring system for nonalcoholic fatty liver disease (Kleiner D L et al., Hepatology, (2005), 41:1313-21). The remaining liver tissue was analyzed for liver triglycerides and cholesterol levels by biochemical assays.
The AH mouse model was generated as described in Shah et al. through chronic and binge ethanol (EtOH) feeding plus lipopolysaccharide (LPS) administration, to provide a second insult, to increase liver damage (Bertola A et al., Nat Protoc, (2013), 8:627-637; Takahashi Y et al., (2017), 313-339; Shah R et al., Oxid Med Cell Longev, (2018), 2018:9630175). This model recapitulates the major features of human AH, including marked ALT and AST elevation, liver steatosis, and fibrosis (Lucey M R et al., N Engl J Med., (2009), 360:2758-2769). For a dose-response study, a total of 60 (12 per group, 50:50 male/female ratio) C57BL6 mice (6-8-weeks old) were fed Lieber-DeCarli '82 rodent liquid diet (LDC) ad libitum, for 5 days, to acclimatize them to tube feeding. On days 6-11, mice were fed the LCD diet plus ethanol (5% vol:vol), and treated with indeglitazar (10 mg/kg, 30 mg/kg, or 50 mg/kg, oral gavage). On day 12, mice were given a single dose of EtOH (5 g/kg/body weight) by oral gavage and LPS (2 mg/kg/body weight) by ip injection; pair-fed mice were fed isocaloric maltose dextrin and all mice were euthanized 6 h later.

[2] = test system: adiponectin gene expression; conditions: compared with full PPAR γ-agonists like pioglitazone; cited from earlier work

With `COc1ccc(S(=O)(=O)n2cc(CCC(=O)O)c3cc(OC)ccc32)cc1` [Indeglitazar, 3-[5-methoxy-1-(4-methoxybenzenesulfonyl)-1H-indol-3-yl]-propanoic acid] as the compound, how does the “agonism against PPARα” value (PPARα) read?
The value was “full agonism”.

And the “effect on liver triglycerides” value ([1]; 50 mg/kg, vs vehicle+EtOH)?
Its value is “significantly reduced”.

And the “reduction of ALT activity” value ([1]; 50 mg/kg, vs vehicle+EtOH, P<0.0001)?
Its value is 60%.

And the “reduction of AST” value ([1]; 50 mg/kg, vs vehicle+EtOH, P<0.004)?
The value was 49%.

And the “reduction of liver TG” value ([1]; 50 mg/kg, vs vehicle+EtOH, P<0.03)?
The value was 35%.

And the “effect on liver total cholesterol” value ([1]; 10, 30, 50 mg/kg/day)?
Its value is “no significant effect”.

What about the “effect on food intake” value ([1]; 10, 30 and 50 mg/kg oral gavage, vs EtOH-treated vehicle control) of the same compound?
Its value is “Neither EtOH (vs no EtOH vehicle control) or indeglitazar had a significant effect”.

What about the “effect on body weight” value ([1]; vs ethanol-treated vehicle control) of the same compound?
Its value is “no significant effect”.

And the “effect on body weight” value ([1]; vs ethanol-treated vehicle control, listed as indeglitazar)?
Its value is “Neither EtOH (vs no EtOH vehicle control) or indeglitazar had a significant effect; also recorded: no significant effect”.

What about the “effect on AST” value ([1]; 10 and 50 mg/kg, vs ethanol-treated vehicle control) of the same compound?
Its value is “significant decreases”.

What about the “effect on ALT” value ([1]; all three doses (10, 30, 50 mg/kg), vs ethanol-treated vehicle control) of the same compound?
The value was “significant decrease”.

And the “stimulating adiponectin gene expression” value [2]?
The value was “only partially effective”.
